Assay results published in publication PMC5397431, “Multigeneration toxicity of imidacloprid and thiacloprid to Folsomia candida” (Ecotoxicology (London, England), 2017).
“And” between values parts separate entries of the source, which are not always exact repeats. Equal entries are not always repeated. Where two headings read alike, the source gives them in different places.

How the values were obtained:
Folsomia candida [1] = test: Multigeneration toxicity test (survival and reproduction) with springtails in spiked LUFA 2.2 soil; format: in vivo; conditions: for EC50: number of juveniles
Procedure: F. candida were taken from cultures at the Department of Ecological Science at the Vrije Universiteit in Amsterdam. To obtain age-synchronized animals, adults from the culture were separated in boxes with a layer of plaster of Paris over a period of 2–3 days to lay eggs, after which they were removed. After removal of the adults, the eggs were incubated under a 12 h light/12 h dark regime at 20 °C and 75% relative humidity, where they hatched and grew. Juveniles of 10–12 days old were used for testing.
All tests were performed in the natural standard LUFA 2.2 (Lufa Speyer, Germany), a loamy sand with 1.59 ± 0.13% organic carbon, pH in 0.01 M CaCl2 of 5.4 ± 0.2, and water holding capacity (WHC) of 43.5 ± 2.8% of its dry weight.
Pure imidacloprid and thiacloprid (purity 98%) were kindly provided by Bayer CropScience, Monheim, Germany. Test concentrations of imidacloprid and thiacloprid were based on the results of earlier tests. Stock solution of both compounds in water were prepared, to spike the chemicals into the soil and at the same time bringing moisture content to the desired level of 50% of the WHC. To ensure complete thiacloprid dissolution, a small amount of acetone was added to the stock solution. This stock solution was used to spike soil with the highest test concentration and further diluted for spiking soil with the lower concentrations tested. Considering the low amount of acetone needed to make thiacloprid completely dissolve, no attempts were made to correct for that by adding acetone to the lower concentrations and control in the multigeneration test. All soils were thoroughly mixed to achieve a homogenous distribution of the test chemicals in the test soil.
Multigeneration tests started with a control, […] imidacloprid (0, 0.001, 0.003, 0.01, 0.03, 0.1, 0.3, 1.0 mg/kg dry soil) and 9 thiacloprid concentrations (0, 0.0015, 0.0045, 0.014, 0.041, 0.11, 0.31, 1.1, 3.3, 10.0 mg/kg dry soil). Batches of soil sufficient to perform three toxicity tests were prepared. After filling test jars for the parent generation exposure, the remaining spiked soil was stored in glass jars in a climate room at 20 °C for subsequent exposure of the next two generations. Moisture content of the spiked soil was checked regularly by weighing the jars, and replenished by adding deionized water if needed.
After 28 days (35 days for the second generation), the juveniles from the same exposure concentration were pooled in the same container with a moist plaster of Paris bottom and incubated overnight before being transferred to the next cycle of exposure. This experiment spanned a total of three continuous generations (referred to as F0, F1, and F2).

Folsomia candida [2] = test: Literature data on toxicity to Folsomia candida in soil; format: in vivo; conditions: 28-day, artificial soil; 10% OM (sphagnum peat), pure; recalculated with logistic dose-response model from figures; ref Reynolds (2008)
Description: The LC50 and EC50 values for the toxicity of imidacloprid found in this study are within the range set by previous studies in our lab (Table S3). The values reported by Idinger ([2002]) for the toxicity of imidacloprid in the commercial formulation Confidor 70WP, tested in artificial soil, also are in the same range. Some LC50s reported in the literature, however, are somewhat higher, which could be explained by several factors. […] The use of an artificial soil with higher OM contents probably also explains the somewhat higher LC50 and EC50 values reported by Reynolds ([2008]). […] For two commercial formulations, EFSA ([2008]) found lower NOECs of 0.2–0.32 mg a.s./kg. Laboratory conditions such as temperature and light/dark regime may affect the metabolism of test animals, leading to differential toxicity of imidacloprid.
Table S3. Overview of data on the toxicity of imidacloprid and thiacloprid to Folsomia candida. All LC50 and EC50 values are in mg/kg dry soil and all tests were carried out on a 28-day exposure period. OM = organic matter.

honeybees = tested on: honeybees; design: method as in Iwasa et al. (2004); conditions: acute dermal exposure; ref Iwasa et al. (2004); cited from earlier work
Folsomia candida [3] = conditions: cited from earlier work
[4] = F0 generation, 28 days, LUFA 2.2 soil, nominal concentrations
[5] = F1 generation, 35 days, soil spiked at start of F0, nominal concentrations
[6] = F2 generation, 28 days, soil spiked at start of F0, nominal concentrations
[7] = range over the three generations, Lufa 2.2, pure compound, this study
[8] = 28-day exposure, Lufa 2.2, ~3.0% OM, pure, ref De Lima e Silva et al. (submitted)
[9] = artificial soil, 10% OM, based on regression analysis, ref Reynolds (2008)

Structure (SMILES): O=[N+]([O-])NC1=NCCN1Cc1ccc(Cl)nc1 [Imidacloprid, imidacloprid]
- NOEC (Folsomia candida [1]; [4]): 0.1 mg/kg dry soil and 0.10 mg/kg dry soil
- LC50 (Folsomia candida [1]; F0 generation, 28 days, adult survival, LUFA 2.2 soil, nominal concentrations): 0.44 mg/kg dry soil
- EC50 (Folsomia candida [1]; [4]): 0.29 mg/kg dry soil
- EC50 (Folsomia candida [1]; [5]): 0.12 mg/kg dry soil
- LC50 (Folsomia candida [1]; [5]): 0.39 mg/kg dry soil
- NOEC (Folsomia candida [1]; [5]): 0.1 mg/kg dry soil and 0.10 mg/kg dry soil
- EC50 (Folsomia candida [1]; [6]): 0.14 mg/kg dry soil
- LC50 (Folsomia candida [1]; [6]): 0.21 mg/kg dry soil
- NOEC (Folsomia candida [1]; [6]): 0.1 mg/kg dry soil and 0.10 mg/kg dry soil
- EC10 (Folsomia candida [1]; Folsomia candida, in vivo, 35 days, pH 5.4): 0.080 mg/kg dry soil
- EC50, range over generations (Folsomia candida [1]; [7]): 0.12–0.29 mg/kg dry soil
- LC50, range over generations (Folsomia candida [1]; [7]): 0.21–0.44 mg/kg dry soil
- EC50, recalculated (Folsomia candida [2]): 0.26^& mg/kg dry soil
- LC50, recalculated (Folsomia candida [2]): 0.86^& mg/kg dry soil
- times more toxic than thiacloprid (honeybees): about 800 times
- EC50 (Folsomia candida [3]; [8]): 0.097-0.30 mg/kg dry soil
- LC50 (Folsomia candida [3]; [8]): 0.20-0.65 mg/kg dry soil
- NOEC (Folsomia candida [3]; active substance, ref EFSA (2008)): 1.25 mg/kg dry soil
- EC50 reported by Reynolds (Folsomia candida [3]; [9]): 0.60 mg/kg
- LC50 reported by Reynolds (Folsomia candida [3]; [9]): 1.38 mg/kg
